In ChEMBL document CHEMBL1201862, “PubChem BioAssay data set” (2004):
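Five concentrations, 48 hours, 96-well plates. The concentration for 50% growth inhibition is given as GI50.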 Activity calls are given as the source filed them. Cut-off read from the data, not from the text of the source: active = GI50 up to about 1.1 µM and inactive = higher.

Key:
Experiment in all cases: NCI tumour cell line growth inhibition, 48 h
786-0 = tested on: 786-0
A549 = tested on: A549
HCT-15 = tested on: HCT-15
IGROV-1 = tested on: IGROV-1
K562 = tested on: K562
MOLT-4 = tested on: MOLT-4
NCI-H226 = tested on: NCI-H226
NCI-H522 = tested on: NCI-H522
NCI/ADR-RES = tested on: NCI/ADR-RES
OVCAR-3 = tested on: OVCAR-3
OVCAR-8 = tested on: OVCAR-8
RXF 393 = tested on: RXF 393
SK-MEL-5 = tested on: SK-MEL-5
SK-OV-3 = tested on: SK-OV-3
SN12C = tested on: SN12C
SR = tested on: SR
U-251 = tested on: U-251
UACC-62 = tested on: UACC-62
OVCAR-5 = tested on: OVCAR-5

| SMILES | GI50 (786-0) | GI50 (A549) | GI50 (HCT-15) [µM] | GI50 (IGROV-1) | GI50 (K562) | GI50 (MOLT-4) | GI50 (NCI-H226) | GI50 (NCI-H522) | GI50 (NCI/ADR-RES) | GI50 (OVCAR-3) | GI50 (OVCAR-8) | GI50 (RXF 393) | GI50 (SK-MEL-5) | GI50 (SK-OV-3) | GI50 (SN12C) | GI50 (SR) | GI50 (U-251) | GI50 (UACC-62) | GI50 (OVCAR-5) |
| --- | --- | --- | --- | --- | --- | --- | --- | --- | --- | --- | --- | --- | --- | --- | --- | --- | --- | --- | --- |
| CC(C)OC(=O)[C@H]1ON2O[C@H](O[C@@H]3CCCC[C@H]3c3ccccc3)C([Si](C)(C)c3ccccc3)[C@H]3OC(=O)[C@@H]1C32 (stereo partly specified) | > 100 µM (inactive) | > 100 µM (inactive) | > 100 | > 100 µM (inactive) | 34 µM (inactive) | 18.7 µM (inactive) | > 100 µM (inactive) | 81.3 µM (inactive) | > 100 µM (inactive) | > 100 µM (inactive) | > 100 µM (inactive) | > 100 µM (inactive) | > 100 µM (inactive) | > 100 µM (inactive) | > 100 µM (inactive) | 21.2 µM (inactive) | > 100 µM (inactive) | > 100 µM (inactive) | – |
| CCCCCc1cc2cc3c(c(O)c2c(=O)[nH]1)C1(CCC3)C(=O)c2c(O)ccc(O)c2C1=O | > 100 µM (inactive) | > 100 µM (inactive) | > 100 | > 100 µM (inactive) | > 100 µM (inactive) | > 100 µM (inactive) | > 100 µM (inactive) | > 100 µM (inactive) | 99.5 µM (inactive) | > 100 µM (inactive) | 59.3 µM (inactive) | 43 µM (inactive) | > 100 µM (inactive) | – | > 100 µM (inactive) | > 100 µM (inactive) | > 100 µM (inactive) | – | > 100 µM (inactive) |
| CCOC(=O)c1nc2c3c(ncn2n1)Oc1c(c(-c2ccccc2)nn1-c1ccccc1)C3c1ccc(Cl)cc1 (stereo unspecified) | > 100 µM (inactive) | > 100 µM (inactive) | > 100 | – | > 100 µM (inactive) | – | > 100 µM (inactive) | > 100 µM (inactive) | > 100 µM (inactive) | > 100 µM (inactive) | > 100 µM (inactive) | > 100 µM (inactive) | > 100 µM (inactive) | > 100 µM (inactive) | > 100 µM (inactive) | > 100 µM (inactive) | > 100 µM (inactive) | > 100 µM (inactive) | > 100 µM (inactive) |
| Cc1ccccc1/N=N/c1ccc(N/N=C2/CCCNC2=O)c(C)c1 | > 100 µM (inactive) | 68.1 µM (inactive) | > 100 | > 100 µM (inactive) | > 100 µM (inactive) | 34.6 µM (inactive) | > 100 µM (inactive) | 31.2 µM (inactive) | > 100 µM (inactive) | – | – | > 100 µM (inactive) | 45.2 µM (inactive) | > 100 µM (inactive) | > 100 µM (inactive) | 36.1 µM (inactive) | > 100 µM (inactive) | > 100 µM (inactive) | > 100 µM (inactive) |
| CO/N=C(\C(=O)Nc1cncs1)c1csc(N)n1 | > 10 µM (inactive) | > 10 µM (inactive) | > 10 | > 10 µM (inactive) | > 10 µM (inactive) | > 10 µM (inactive) | – | > 10 µM (inactive) | > 10 µM (inactive) | > 10 µM (inactive) | > 10 µM (inactive) | – | > 10 µM (inactive) | > 10 µM (inactive) | > 10 µM (inactive) | > 10 µM (inactive) | > 10 µM (inactive) | > 10 µM (inactive) | > 10 µM (inactive) |
| C=C[C@]1(C)CC[C@]2(C)C(CC[C@@]3(C)C2C[C@H](O)[C@H](O)[C@@]3(C)O)C1 (stereo partly specified) | > 100 µM (inactive) | > 100 µM (inactive) | > 100 | > 100 µM (inactive) | > 100 µM (inactive) | > 100 µM (inactive) | > 100 µM (inactive) | > 100 µM (inactive) | > 100 µM (inactive) | > 100 µM (inactive) | > 100 µM (inactive) | – | > 100 µM (inactive) | > 100 µM (inactive) | > 100 µM (inactive) | > 100 µM (inactive) | > 100 µM (inactive) | > 100 µM (inactive) | > 100 µM (inactive) |
| CC(C)[Si](OC1=CCC[C@H]2NC(=O)[C@@H](Cc3ccccc3)[C@@]12C)(C(C)C)C(C)C | 3.94 µM (inactive) | 2.98 µM (inactive) | 4.09 | 10.9 µM (inactive) | 3.2 µM (inactive) | 3.89 µM (inactive) | – | 3.46 µM (inactive) | 6.49 µM (inactive) | 5.79 µM (inactive) | 11.4 µM (inactive) | 4.16 µM (inactive) | 3.37 µM (inactive) | 5.93 µM (inactive) | 3.23 µM (inactive) | 2.62 µM (inactive) | 3.62 µM (inactive) | 8.95 µM (inactive) | 9.44 µM (inactive) |
| CN1C(=O)C2CCCC(=O)N2c2cccnc21 (stereo unspecified) | > 100 µM (inactive) | > 100 µM (inactive) | > 100 | > 100 µM (inactive) | > 100 µM (inactive) | > 100 µM (inactive) | > 100 µM (inactive) | > 100 µM (inactive) | > 100 µM (inactive) | > 100 µM (inactive) | > 100 µM (inactive) | – | > 100 µM (inactive) | – | > 100 µM (inactive) | > 100 µM (inactive) | > 100 µM (inactive) | 68.9 µM (inactive) | – |
| C/C(=N\NC(=S)Nc1ccc([N+](=O)[O-])cc1)c1nc2cccnc2[nH]1 | 0.748 µM (active) | 0.783 µM (active) | 0.617 | 0.942 µM (active) | 1.55 µM (inactive) | 0.377 µM (active) | 0.504 µM (active) | 1.06 µM (active) | 1.13 µM (inactive) | 0.299 µM (active) | 0.348 µM (active) | – | 0.991 µM (active) | 1.16 µM (inactive) | 1.65 µM (inactive) | 0.388 µM (active) | 0.251 µM (active) | 0.447 µM (active) | 1.08 µM (active) |
| O=C1OCC2=Nc3cccc4cccc(c34)N12 | > 100 µM (inactive) | > 100 µM (inactive) | > 100 | > 100 µM (inactive) | > 100 µM (inactive) | > 100 µM (inactive) | > 100 µM (inactive) | 88.9 µM (inactive) | > 100 µM (inactive) | > 100 µM (inactive) | > 100 µM (inactive) | > 100 µM (inactive) | > 100 µM (inactive) | > 100 µM (inactive) | > 100 µM (inactive) | > 100 µM (inactive) | > 100 µM (inactive) | > 100 µM (inactive) | – |
| COc1cc(O)c(C(=O)/C=C/c2ccccc2)c(OC)c1 [FLAVOKAWAIN B] | 4.62 µM (inactive) | 10.3 µM (inactive) | 4.51 | 4.53 µM (inactive) | – | 5.37 µM (inactive) | 4.15 µM (inactive) | 2.42 µM (inactive) | 3.8 µM (inactive) | 7.1 µM (inactive) | 3.64 µM (inactive) | 12.5 µM (inactive) | 9.27 µM (inactive) | 11.6 µM (inactive) | 3.29 µM (inactive) | 1.85 µM (inactive) | 4.6 µM (inactive) | 4.14 µM (inactive) | 23.9 µM (inactive) |
| CCCC1C(CC)C(NC)C(C#N)(C#N)C1(C#N)C#N (stereo unspecified) | 15.4 µM (inactive) | 34.8 µM (inactive) | 13.2 | 15.7 µM (inactive) | 23.7 µM (inactive) | 24.1 µM (inactive) | 2.88 µM (inactive) | 13.9 µM (inactive) | 17.9 µM (inactive) | – | 20.7 µM (inactive) | 13.1 µM (inactive) | 12.1 µM (inactive) | > 100 µM (inactive) | 15.1 µM (inactive) | 16.9 µM (inactive) | 28.1 µM (inactive) | 17.5 µM (inactive) | 33.7 µM (inactive) |
| CNc1ccc([S+]([O-])Nc2ccc(OC)cc2)cc1 (stereo unspecified) | 74.8 µM (inactive) | 66.2 µM (inactive) | > 100 | 11.4 µM (inactive) | 21.3 µM (inactive) | 51.8 µM (inactive) | > 100 µM (inactive) | > 100 µM (inactive) | 27.9 µM (inactive) | > 100 µM (inactive) | 86.3 µM (inactive) | – | 19.3 µM (inactive) | 49.2 µM (inactive) | > 100 µM (inactive) | > 100 µM (inactive) | 43.4 µM (inactive) | > 10 µM (inactive) | – |
| O=C1NCC2(CCN(CCCC3(c4ccc(F)cc4)OCCO3)CC2)N1c1ccccc1 | > 100 µM (inactive) | > 100 µM (inactive) | > 100 | > 100 µM (inactive) | > 100 µM (inactive) | > 100 µM (inactive) | > 100 µM (inactive) | > 100 µM (inactive) | > 100 µM (inactive) | > 100 µM (inactive) | > 100 µM (inactive) | > 100 µM (inactive) | > 100 µM (inactive) | – | > 100 µM (inactive) | > 100 µM (inactive) | > 100 µM (inactive) | > 100 µM (inactive) | > 100 µM (inactive) |
| NC(=O)C1=NNc2ccccc2C(=O)N1c1ccccc1 | > 100 µM (inactive) | > 100 µM (inactive) | > 100 | > 100 µM (inactive) | – | > 100 µM (inactive) | > 100 µM (inactive) | > 100 µM (inactive) | > 100 µM (inactive) | > 100 µM (inactive) | > 100 µM (inactive) | > 100 µM (inactive) | > 100 µM (inactive) | > 100 µM (inactive) | > 100 µM (inactive) | > 100 µM (inactive) | > 100 µM (inactive) | > 100 µM (inactive) | > 100 µM (inactive) |
| BrC(c1cccc2ccccc12)c1cccc2ccccc12 | 13.7 µM (inactive) | 26.4 µM (inactive) | 17.7 | 13.8 µM (inactive) | > 100 µM (inactive) | > 100 µM (inactive) | 17.2 µM (inactive) | 10.9 µM (inactive) | 16.5 µM (inactive) | 11.9 µM (inactive) | 17.3 µM (inactive) | 13.6 µM (inactive) | 17.5 µM (inactive) | – | 14.3 µM (inactive) | > 100 µM (inactive) | 16.9 µM (inactive) | 14.6 µM (inactive) | 27.1 µM (inactive) |
